Data on seven compounds can be found in patent US5284862A, “Derivatives of 2-carboxyindoles having pharmaceutical activity” (Warner-Lambert Company, priority 1992, dated 1994).

In general, IC50 refers to the midpoint of a concentration-inhibition curve.

The target of experiment [1] is T1, strychnine insensitive glycine receptor which is located on the NMDA receptor complex (Rattus norvegicus, UniProt P35439).
T1 construct: from tissue
The experiment in a line: glycine binding assay ([3H]-Gly). To be noted: for inhibition at 10 µM: read-out: [3H]-Gly, % Inh. at 10 μM; for IC50: [3H]-glycine binding. Here is the method: Specifically, the compounds of the present invention have activity as antagonists at the strychnine insensitive glycine receptor which is located on the NMDA receptor complex. As such, the compounds of the present invention are NMDA receptor antagonists. Also, the compounds of the present invention have activity as AMPA and kainate receptor antagonists.
The glycine binding assay is performed essentially as described by W. Frost White, et al, Journal of Neurochemistry 1989;53(2):503-12.

A further experiment addresses AMPA receptor. The experiment in a line: AMPA binding assay ([3H]-AMPA). The note with it: [3H]-AMPA binding; unit inferred. The source says:
The AMPA binding assay may also be performed to provide an activity profile for the compounds of the present invention.

A further experiment concerns cortical neuronal cells. The experiment in a line: glutamate-induced lactate dehydrogenase (LDH) efflux assay. The experiment is classed as cell-based. To be noted: glutamate exposure 5 minutes; LDH released into the culture medium 1 day after exposure. Here is the method: The glutamate-induced lactate dehydrogenase (LDH) efflux assay is also used to measure the activity of the compounds of the present invention. Procedures for evaluating neurotoxicity in cortical neuronal cells by measuring efflux of LDH are carried out similarly as described by J. Y. Koh and D. W. Choi, J. Neurosci. Methods 1987;20:83-90. Only mature ([…] in vitro) cortical cultures were selected for study. Cells were exposed for 5 minutes to a glutamate exposure solution. Compounds tested were added to the glutamate exposure medium. In all experiments the glutamate exposure was removed and fresh buffer was added. Overall neuronal injury was quantitatively assessed by measurement of LDH released into the culture medium 1 day after glutamate exposure (see J. G. Klingman, D. M. Hartley, D. W. Choi, J. Neurosci. Methods 1989;31:47-51) using a 96-well plate reader.
In general terms: Release of lactate dehydrogenase indicates damage to the cell membrane.

Consider `O=C(/C=C/c1c(C(=O)O)[nH]c2cc(Cl)cc(Cl)c12)NCc1ccccc1`, for which the inhibition at 10 µM in experiment [1] amounted to 84%. On AMPA receptor, this compound had an IC50 of 213 µM.

For the compound `O=C(O)/C=C/c1c(C(=O)O)[nH]c2cc(Cl)cc(Cl)c12`, the figures for the IC50 (in experiment [1]; with cortical neuronal cells; on AMPA receptor) were 0.18 µM, 10.2 µM and 203 µM, respectively.

Consider `O=C(CCCc1c(C(=O)O)[nH]c2cc(Cl)cc(Cl)c12)NS(=O)(=O)c1ccccc1`, for which the inhibition at 10 µM in experiment [1] was found to be 89%. Also, at AMPA receptor, the 50% inhibitory concentration (IC50) was 108 µM.

As for `O=C(CCc1c(C(=O)O)[nH]c2cc(Cl)cc(Cl)c12)NS(=O)(=O)c1ccccc1`, the figures for the IC50 (in experiment [1]; with cortical neuronal cells; on AMPA receptor) were 0.068 µM, 7.8 µM and 113 µM, respectively.

`O=C(/C=C/c1c(C(=O)O)[nH]c2cc(Cl)cc(Cl)c12)NS(=O)(=O)c1ccccc1`: the inhibition at 10 µM in experiment [1] stood at 87%. In addition, the IC50 at AMPA receptor was 122 µM.

Turning to `[N-]=[N+]=Nc1cccc(S(=O)(=O)NC(=O)CCc2c(C(=O)O)[nH]c3cc(Cl)cc(Cl)c23)c1`, the IC50 in experiment [1] came out at 0.079 µM; with cortical neuronal cells, 6 µM; at AMPA receptor, 150 µM.

Turning to `CS(=O)(=O)NC(=O)CCc1c(C(=O)O)[nH]c2cc(Cl)cc(Cl)c12`, the IC50 was found to be 0.543 µM in experiment [1], 21.5 µM in the experiment with cortical neuronal cells and 80 µM on AMPA receptor.
